Consider 12 compounds from paper PMC6149812, “Access to New Cytotoxic Quinone-Amino Acid Conjugates Linked through A Vinylic Spacer from 2-Acylnaphthoquinones and Methyl 3-Aminocrotonate” (Molecules : A Journal of Synthetic Chemistry and Natural …, 2017).

Like-named read-outs stand apart in the source and are kept apart here.

Data set [1] relates to J82 human bladder carcinoma cells. In words: MTT reduction cytotoxicity assay, 72 h drug exposure, J82. It is filed as cell-based. The note with it: human bladder carcinoma cell line, 72 h exposure, average of six determinations, read-out: IC50 ± SEM, J82.
In data set [2] the test system is AGS human gastric adenocarcinoma cells. The experiment in a line: MTT reduction cytotoxicity assay, 72 h drug exposure, AGS. The class given is cell-based. The note with it: human gastric adenocarcinoma cell line, 72 h exposure, average of six determinations, read-out: IC50 ± SEM, AGS.
The test system of data set [3] is SK-MES-1 human lung cancer cells. In words: MTT reduction cytotoxicity assay, 72 h drug exposure, SK-MES-1. The class given is cell-based. To be noted: 72 h exposure, average of six determinations, read-out: IC50 ± SEM, SK-MES-1.
Data set [4] can be described thus: MTT reduction cytotoxicity assay, 72 h drug exposure, cell line panel of Table 3. The class given is cell-based. The note with it: human, summary range over the cell lines of Table 3, 72 h exposure, read-out: cytotoxic activities, range of IC50 over Table 3. As for the experimental part:
Finally, HL-60 cells were grown in RPMI medium.

The subject of data set [5] is MRC-5 normal human lung fibroblasts. The experiment in a line: cells. The note with it: MRC5, 72 h, read-out: IC50 ± SEM, MRC-5.
Description: (§1) Cytotoxic activities of the compounds are expressed in terms of IC50. Etoposide, a clinically used anticancer agent, was taken as a positive control.
(§2) Media were supplemented with 10% heat-inactivated fetal bovine serum (FBS), 100 IU/mL penicillin and 100 μg/mL streptomycin and cell cultures were kept in a humidified incubator with 5% CO2 in air at 37 °C. For the cytotoxicity experiments, cells were seeded into 96-well plates at a density of 50,000 cells/mL. After reaching confluence, cells were incubated for three days with compounds at varied concentrations ranging from 0 up to 100 μM while untreated cells (medium containing 1% DMSO) were used as controls. Cytotoxicity was assessed using the MTT (3-(4,5-dimethylthiazol-2-yl)-2,5-diphenyltetrazolium bromide) reduction assay. […] Values were the means of six replicates for each concentration and transformed to percentage of controls.
Data set [6] shares this test system. The note with it: for IC50: read-out: IC50 ± SEM, MRC-5, normal human lung fibroblasts, 72 h exposure, MTT, average of six determinations.
Description: as §1, §2
[7] abbreviates: SK-MES-1, human lung cancer cell line.

Compound `COC(=O)/C(C1=C(C(=O)c2ccccc2)C(=O)c2ccccc2C1=O)=C(/C)N[C@@H](CC(C)C)C(=O)OC` [Compound 8, Methyl (Z)-[3-(3-benzoyl-1,4-dioxo-1,4-dihydronaphthalen-2-yl)-4-methoxy-4-oxobut-2-en-2-yl]-L-leucinate] displayed a melting point of 222.5 to 224.5 °C. Also, in data set [1], the IC50 turned out to be 12.9 ± 0.9 µM. Also, the IC50 in data set [2] was determined as 26.9 ± 1.5 µM. For the same compound, the IC50 in data set [3] (setting [7]) was determined as 34.5 ± 1.7 µM. For the same compound, in data set [4], the IC50 at 72 h fell in the range of 4.5 to 53.4 µM. Besides, the IC50 in data set [5] turned out to be 26.6 ± 1.3 µM.

With `COC(=O)C1=C(C)N(CCO)C(C)(O)C2=C1C(=O)c1ccccc1C2=O` (stereo not shown) [Compound 5a, Methyl 1-hydroxy-2-(2-hydroxyethyl)-1,3-dimethyl-5,10-dioxo-1,2,5,10-tetrahydrobenzo[g]isoquinoline-4-carboxylate], the melting point lay in the range of 215 to 217 °C.

Regarding `COc1cc([C@@H]2c3cc4c(cc3[C@@H](O[C@@H]3O[C@@H]5CO[C@@H](C)O[C@H]5[C@H](O)[C@H]3O)[C@H]3COC(=O)[C@H]23)OCO4)cc(OC)c1O` [Ref., etoposide, reference compound], the IC50 was determined as 3.3 ± 0.2 µM in data set [1], 0.4 µM in data set [2], 2.9 ± 0.2 µM in data set [3] (setting [7]) and 2.2 ± 0.1 µM in data set [5].

Turning to “Methyl (S,Z)-2-(3-benzoyl-1,4-dioxo-1,4-dihydronaphthalen-2-yl)-3-[(1-methoxy-1-oxo-3-phenylpropan-2-yl)amino]-but-2-enoate [Compound 9]”, the IC50 in data set [1] turned out to be 22 ± 1.1 µM; in data set [2], 19.3 ± 1.5 µM; in data set [3] (human lung cancer cell line), 39.3 ± 1.6 µM; in data set [6], 33.3 ± 2.2 µM.

As to “Methyl (R,Z)-2-(3-benzoyl-1,4-dioxo-1,4-dihydronaphthalen-2-yl)-3-[(1-methoxy-1-oxo-3-phenylpropan-2-yl)amino]-but-2-enoate [Compound 10]”, the IC50 in data set [1] stood at 23 ± 0.7 µM; in data set [2], 30.7 ± 1.5 µM; in data set [3] (human lung cancer cell line), 34.2 ± 2.3 µM; in data set [6], 46.7 ± 2.9 µM.

Regarding `CCCCCC(=O)C1=C(/C(C(=O)OC)=C(\C)N[C@@H](CC(C)C)C(=O)OC)C(=O)c2ccccc2C1=O` [Compound 13, Methyl (Z)-[3-(3-hexanoyl-1,4-dioxo-1,4-dihydronaphthalen-2-yl)-4-methoxy-4-oxobut-2-en-2-yl]-L-leucinate], the IC50 worked out at 23.5 ± 1.6 µM in data set [1], 17 ± 1.1 µM in data set [2], 21.6 ± 1.3 µM in data set [3] (setting [7]) and 24.9 ± 0.7 µM in data set [5]. Moreover, the IC50 at 72 h in data set [4] fell in the range of 4.5 to 53.4 µM.

Regarding “Methyl (R,Z)-2-(3-butyryl-1,4-dioxo-1,4-dihydronaphthalen-2-yl)-3-[(1-methoxy-1-oxo-3-phenylpropan-2-yl)amino]-but-2-enoate [Compound 12]”, the IC50 came to 14 ± 0.6 µM in data set [1], 12.8 ± 0.7 µM in data set [2], 15.9 ± 0.9 µM in data set [3] (human lung cancer cell line) and 21.8 ± 1.5 µM in data set [6].

“Methyl (S,Z)-3-[(3-(1H-indol-3-yl)-1-methoxy-1-oxopropan-2-yl)amino]-2-(3-benzoyl-1,4-dioxo-1,4-dihydronaphthalen-2-yl)-but-2-enoate [Compound 11]”: the IC50 in data set [1] came out at 21.4 ± 0.8 µM; in data set [2], 10.1 ± 0.1 µM; in data set [3] (human lung cancer cell line), 18.9 ± 0.5 µM; in data set [6] it was 13 ± 0.8 µM.

Consider “Methyl (S,Z)-3-[(3-(1H-indol-3-yl)-1-methoxy-1-oxopropan-2-yl)amino]-2-(3-hexanoyl-1,4-dioxo-1,4-dihydronaphthalen-2-yl)but-2-enoate [Compound 14]”, for which the IC50 in data set [1] was determined as 4.5 ± 0.2 µM; in data set [2] it was 9.3 ± 0.6 µM; in data set [3] (human lung cancer cell line), 5.5 ± 0.2 µM; in data set [6], 22.1 ± 1.6 µM. For the same compound, the “cytotoxicity relative to etoposide on normal human lung fibroblasts cells” value in data set [6] is listed as “ten times lower”.

In turn, `COC(=O)C1=C(C)N(CCO)C(O)(c2ccccc2)C2=C1C(=O)c1ccccc1C2=O` (stereo not shown) [Compound 5b, Methyl 1-hydroxy-2-(2-hydroxyethyl)-3-methyl-5,10-dioxo-1-phenyl-1,2,5,10-tetrahydrobenzo[g] isoquinoline-4-carboxylate] had a melting point of 236.5 to 238.5 °C.

For `COC(=O)/C(C1=C(C(=O)c2ccccc2)C(=O)c2ccccc2C1=O)=C(/C)N[C@H](C)C(=O)OC` [Compound 7, Methyl (R,Z)-2-(3-benzoyl-1,4-dioxo-1,4-dihydronaphthalen-2-yl)-3-[(1-methoxy-1-oxopropan-2-yl)amino]-but-2-enoate], the IC50 amounted to 35.6 ± 1.4 µM in data set [1], 20.5 ± 1.1 µM in data set [2], 53.4 ± 4.3 µM in data set [3] (setting [7]) and 17.4 ± 0.7 µM in data set [5]. In addition, the IC50 at 72 h in data set [4] lay in the range of 4.5 to 53.4 µM.

With `COC(=O)/C(C1=C(C(=O)c2ccccc2)C(=O)c2ccccc2C1=O)=C(/C)N[C@@H](C)C(=O)OC` [Compound 6, Methyl (S,Z)-2-(3-benzoyl-1,4-dioxo-1,4-dihydronaphthalen-2-yl)-3-[(1-methoxy-1-oxopropan-2-yl)amino]-but-2-enoate], the melting point fell in the range of 217 to 218 °C. The IC50 in data set [1] is 37.1 ± 2.2 µM. For the same compound, in data set [2], the IC50 is 52.7 ± 3.7 µM. Further, in data set [3] (setting [7]), the IC50 is 47.8 ± 3.3 µM. Further, the IC50 at 72 h in data set [4] lay within 4.5 to 53.4 µM. In addition, in data set [5], the concentration for half-maximal inhibition (IC50) worked out at 58 ± 4.1 µM.
